Where a name gives a salt, the structure may show the parent alone. Read-outs that look alike come from different tables or passages of the source.
What was measured:
[1] = system: LTB4 production by calcium ionophore-stimulated murine blood; assay: LTB4 production by calcium ionophore-stimulated murine blood for LTA4H inhibitor activity; type: cell-based, CD-1 mice
Outline: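 Heparinized CD-1 mouse blood pre-incubated with compound 15 min at 37° C, then stimulated with calcium ionophore A23187 (7 μg/mL final) for 30 min. LTB4 in supernatant measured by enzyme immunoassay; values are single or averaged determinations, with SD for n≥3.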

[2] = biological target: T1, recombinant human LTA4 hydrolase (rhLTA4H) (Homo sapiens, UniProt P09960); assay: Recombinant human LTA4 hydrolase assay for LTA4 hydrolase inhibitor activity; type: biochemical; settings: rhLTA4H, LTA4 substrate, LTB4 by immunoassay; single determination or average; read-out: IC50
T1 construct: made in house; host or cells: Spodoptera frugiperda (Sf-9) cells, recombinant baculovirus (pFastBac1)
T1 sequence (P09960 1-611): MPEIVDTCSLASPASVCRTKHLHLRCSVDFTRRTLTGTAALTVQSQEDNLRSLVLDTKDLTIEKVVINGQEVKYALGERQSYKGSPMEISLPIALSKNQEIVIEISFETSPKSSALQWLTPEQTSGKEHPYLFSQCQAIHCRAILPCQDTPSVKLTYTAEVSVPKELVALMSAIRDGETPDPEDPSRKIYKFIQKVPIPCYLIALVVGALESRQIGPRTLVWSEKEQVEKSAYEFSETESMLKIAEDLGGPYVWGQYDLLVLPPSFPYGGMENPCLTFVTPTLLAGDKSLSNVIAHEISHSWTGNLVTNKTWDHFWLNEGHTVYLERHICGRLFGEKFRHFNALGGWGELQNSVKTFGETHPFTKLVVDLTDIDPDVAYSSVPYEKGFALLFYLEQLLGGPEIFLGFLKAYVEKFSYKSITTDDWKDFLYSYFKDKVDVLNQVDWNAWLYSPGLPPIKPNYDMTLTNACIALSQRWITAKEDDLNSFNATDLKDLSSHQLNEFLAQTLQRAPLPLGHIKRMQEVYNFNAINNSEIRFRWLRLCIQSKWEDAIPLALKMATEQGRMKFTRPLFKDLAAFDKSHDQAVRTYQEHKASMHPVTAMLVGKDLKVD
Outline: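 Recombinant human LTA4H from baculovirus-infected Sf-9 cells (10 ng) pre-incubated 10 min at rt with compound (10% DMSO in dilutions), then reacted with free-acid LTA4 for 30 min at rt. LTB4 measured by ELISA; IC50 by nonlinear regression. Values are single determinations or averages.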

[3] = Mus musculus, murine blood diluted 1 in 15, calcium ionophore A23187, LTB4 by immunoassay, read-out: IC50

SMILES	IC50 [1, 3] [µM]	IC50 [2] [nM]	IC50 ([1]; Mus musculus) [µM]	IC50 ([1]; murine blood diluted 1 in 15, calcium ionophore A23187, LTB4 by immunoassay, read-out: IC50) [µM]
c1cnc(OC2CCN(CCOc3ccc(Oc4nc5ncccc5s4)cc3)CC2)nc1 [Example 1, 2-(4-{2-[4-(Pyrimidin-2-yloxy)piperidin-1-yl]ethoxy}phenoxy)[1,3]thiazolo[4,5-b]pyridine]	0.15	1		
OC1(c2ccccc2)CCN(CCOc2ccc(Oc3nc4cccnc4s3)cc2)CC1 [Example 40, 4-Phenyl-1-{2-[4-([1,3]thiazolo[5,4-b]pyridin-2-yloxy)phenoxy]ethyl}piperidin-4-ol]	0.95	99		
c1ccc(C2CCN(CCOc3ccc(Oc4nc5cccnc5s4)cc3)CC2)nc1 [Example 38, 2-{4-[2-(4-Pyridin-2-ylpiperidin-1-yl)ethoxy]phenoxy}[1,3]thiazolo[5,4-b]pyridine]	0.95	61		
COc1ccccc1N1CCN(CCOc2ccc(Oc3nc4ncccc4s3)cc2)CC1 [Example 135, 2-(4-{2-[4-(2-Methoxyphenyl)piperazin-1-yl]ethoxy}phenoxy)[1,3]thiazolo[4,5-b]pyridine]	0.088	72		
CC(=O)N1[C@@H]2CC[C@H]1CN(CCOc1ccc(Oc3nc4ncccc4s3)cc1)C2 [Example 162, meso-2-{[4-({2-[8-Acetyl-3,8-diazabicyclo[3.2.1]oct-3-yl]ethyl}oxy)phenyl]oxy}[1,3]thiazolo[4,5-b]pyridine]	0.012	3		
CC(=O)N1C[C@H]2CC[C@@H](C1)N2CCOc1ccc(Oc2nc3ncccc3s2)cc1 [Example 141, meso-2-{4-[2-(3-Acetyl-3,8-diazabicyclo[3.2.1]oct-8-yl)ethoxy]phenoxy}[1,3]thiazolo[4,5-b]pyridine]	0.014	2		
Cc1ccnc2nc(Oc3ccc(OCCN4CC5CN(C(=O)C6CCC6)CC5C4)cc3)sc12 (stereo not shown) [Example 146, 2-(4-{2-[5-(Cyclobutylcarbonyl)hexahydropyrrolo[3,4-c]pyrrol-2(1H)-yl]ethoxy}phenoxy)-7-methyl[1,3]thiazolo[4,5-b]pyridine]	0.45	97		
O=C(O)C1CCN(CCc2ccc(Oc3nc4ncccc4s3)cc2)CC1 [Example 81, 1-{2-[4-([1,3]Thiazolo[4,5-b]pyridin-2-yloxy)phenyl]ethyl}piperidine-4-carboxylic acid]	4.25	27		
c1ccc(SC2CCN(CCOc3ccc(Oc4nc5ncccc5s4)cc3)CC2)nc1 [Example 291, 2-(4-{2-[4-(Pyridin-2-ylsulfanyl)piperidin-1-yl]ethoxy}phenoxy)[1,3]thiazolo[4,5-b]pyridine]	0.28	82		
CS(=O)(=O)NC1CCN(CCOc2ccc(Oc3nc4ncccc4s3)cc2)CC1 [Example 163, N-[1-(2-{[4-([1,3]Thiazolo[4,5-b]pyridin-2-yloxy)phenyl]oxy}ethyl)piperidin-4-yl]methanesulfonamide]	0.031	6		
c1ccc(OC2CCN(CCOc3ccc(Oc4nc5ncccc5s4)cc3)CC2)nc1 [Example 12, 2-(4-{2-[4-(Pyridin-2-yloxy)piperidin-1-yl]ethoxy}phenoxy)[1,3]thiazolo[4,5-b]pyridine]	0.16	11		
OC1(c2ccc(Cl)cc2)CCN(CCOc2ccc(Oc3nc4ncccc4s3)cc2)CC1 [Example 30, 4-(4-Chlorophenyl)-1-{2-[4-([1,3]thiazolo[4,5-b]pyridin-2-yloxy)phenoxy]ethyl}piperidin-4-ol]	0.15	30		
F[C@@H]1CCN(Cc2ccc(Oc3nc4ncccc4s3)cc2)C1 [Example 87, 2-(4-{[(3R)-3-Fluoropyrrolidin-1-yl]methyl}phenoxy)[1,3]thiazolo[4,5-b]pyridine]	0.024	30		
NC(=O)N[C@@H]1C[C@H]2CC[C@@H](C1)N2CCOc1ccc(Oc2nc3ncccc3s2)cc1 [Example 142, meso-1-[(3-exo)-8-{2-[4-([1,3]Thiazolo[4,5-b]pyridin-2-yloxy)phenoxy]ethyl}-8-azabicyclo[3.2.1]oct-3-yl]urea hydrochloride]		8	1600	
CC(=O)N[C@H]1C[C@H]2CC[C@@H](C1)N2CCOc1ccc(Oc2nc3nccnc3s2)cc1 [Example 148, meso-N-[(3-endo)-8-{2-[4-([1,3]Thiazolo[4,5-b]pyrazin-2-yloxy)phenoxy]ethyl}-8-azabicyclo[3.2.1]oct-3-yl]acetamide]	0.036	43		
FC1CCN(Cc2ccc(Oc3nc4ncccc4s3)cc2)CC1 [Example 96, 2-{4-[(4-Fluoropiperidin-1-yl)methyl]phenoxy}[1,3]thiazolo[4,5-b]pyridine]	0.037	24		
c1ccc(SC2CCN(Cc3ccc(Oc4nc5ncccc5s4)cc3)CC2)cc1 [Example 264, 2-(4-{[4-(Phenylsulfanyl)piperidin-1-yl]methyl}phenoxy)[1,3]thiazolo[4,5-b]pyridine]	0.159	30		
c1ccc(CC2CCN(Cc3ccc(Oc4nc5ncccc5s4)cc3)CC2)cc1 [Example 102, 2-{4-[(4-Benzylpiperidin-1-yl)methyl]phenoxy}[1,3]thiazolo[4,5-b]pyridine]	0.21	15		
CC(=O)N[C@H]1C[C@H]2CC[C@@H](C1)N2Cc1ccc(Oc2nc3cccnc3s2)cc1 [Example 119, meso-N-{(3-endo)-8-[4-([1,3]Thiazolo[5,4-b]pyridin-2-yloxy)benzyl]-8-azabicyclo[3.2.1]oct-3-yl}acetamide]	0.77	70		
CC(=O)N1[C@@H]2CC[C@H]1C[C@@H](NCc1ccc(Oc3nc4ncccc4s3)cc1)C2 [Example 169, meso-(3-endo)-8-Acetyl-N-{[4-([1,3]thiazolo[4,5-b]pyridin-2-yloxy)phenyl]methyl}-8-azabicyclo[3.2.1]octan-3-amine]	0.054	18		
c1ccc2c(c1)CCN(CCOc1ccc(Oc3nc4ncccc4s3)cc1)C2 [Example 6, 2-{2-[4-([1,3]Thiazolo[4,5-b]pyridin-2-yloxy)phenoxy]ethyl}-1,2,3,4-tetrahydroisoquinoline]	0.064	9		
c1cnc(OC2CCN(Cc3ccc(Oc4nc5nccnc5s4)cc3)CC2)nc1 [Example 184, 2-[(4-{[4-(Pyrimidin-2-yloxy)piperidin-1-yl]methyl}phenyl)oxy][1,3]thiazolo[4,5-b]pyrazine]	0.11	18		
CC(=O)N1C2CCC1CN(Cc1ccc(Oc3nc4ncccc4s3)cc1)C2 [Example 185, meso-2-[(4-{[8-Acetyl-3,8-diazabicyclo[3.2.1]oct-3-yl]methyl}phenyl)oxy][1,3]thiazolo[4,5-b]pyridine]		7		0.85
OC1(c2cccc(C(F)(F)F)c2)CCN(CCOc2ccc(Oc3nc4nccnc4s3)cc2)CC1 [Example 24, 1-{2-[4-([1,3]Thiazolo[4,5-b]pyrazin-2-yloxy)phenoxy]ethyl}-4-[3-(trifluoromethyl)phenyl]piperidin-4-ol]	0.75	52		
NC(=O)N1C[C@H]2C[C@@H]1CN2CCOc1ccc(Oc2nc3ncccc3s2)cc1 [Example 268, (1R,4R)-5-{2-[4-([1,3]Thiazolo[4,5-b]pyridin-2-yloxy)phenoxy]ethyl}-2,5-diazabicyclo[2.2.1]heptane-2-carboxamide]	0.091	32		
OC1(c2cccc(C(F)(F)F)c2)CCN(CCOc2ccc(Oc3nc4ncccc4s3)cc2)CC1 [Example 33, 1-{2-[4-([1,3]Thiazolo[4,5-b]pyridin-2-yloxy)phenoxy]ethyl}-4-[3-(trifluoromethyl)phenyl]piperidin-4-ol]	0.48	17		
NC(=O)N[C@H]1C[C@H]2CC[C@@H](C1)N2CCc1ccc(Oc2nc3cccnc3s2)cc1 [Example 72, meso-1-[(3-endo)-8-{2-[4-([1,3]Thiazolo[5,4-b]pyridin-2-yloxy)phenyl]ethyl}-8-azabicyclo[3.2.1]oct-3-yl]urea]	1.04	47		
CC(=O)N1CC2CC(CN(Cc3ccc(Oc4nc5ncccc5s4)cc3)C2)C1 [Example 294, meso-2-(4-{[7-Acetyl-3,7-diazabicyclo[3.3.1]non-3-yl]methyl}phenoxy)[1,3]thiazolo[4,5-b]pyridine]	0.079	23		
c1ccc(OC2CCN(Cc3ccc(Oc4nc5ncccc5s4)cc3)CC2)nc1 [Example 261, 2-(4-{[4-(Pyridin-2-yloxy)piperidin-1-yl]methyl}phenoxy)[1,3]thiazolo[4,5-b]pyridine]	0.038	7		

Reference: US20110190503A1, “Thiazolopyridin-2-yloxy-phenyl and thiazolopyrazin-2-yloxy-phenyl amines as modulators of leukotriene A4 hydrolase” (Janssen Pharmaceutical NV, priority 2008, published 2011)
